Values joined by “and” are separate entries in the source; they are usually repeats but may differ in a detail not shown here. Equal values may be shown once. “Also recorded” adds a separate entry of the source. Read-outs that look alike come from different tables or passages of the source. Marks after values point to notes of the source that are not given here.
Experiment: Pharmacokinetics of ginsenosides in plasma after a single oral dose of 6 g FRG or RG, crossover clinical trial
Format: in vivo, human
Conditions: for AUC24 GMR (90% CI) / AUClast GMR (90% CI) / Cmax GMR (90% CI): geometric mean ratio FRG with respect to RG; for Tmax / AUC / Cmax / AUC(0-t): human, po
Procedure: This study was designed as a randomized, open-label, single-dose, 2-sequence, 2-period crossover study with a washout period of 2 weeks to compare the pharmacokinetic parameters of ginsenosides in RG and FRG. All subjects underwent a screening test for enrollment in the current study, and the enrolled subjects were randomly allocated into one of two sequence groups: sequence 1, and sequence 2. The subjects in sequence group 1 were administered 6 g of FRG extract with 200 mL water in the first period, and 6 g of RG extract with 200 mL water in the second period, after a washout period of 2 weeks from the first administration. Subjects in sequence group 2 were administered 6 g of RG extract with 200 mL water in the first period, and then 6 g of FRG extract with 200 mL water in the second period, after the same washout period. During each period, for groups 1 and 2, subjects were hospitalized at the clinical trial center of Kyung Hee University Hospital at 5 PM the day before FRG or RG administration. They received a standardized dinner and fasted, except for drinking water, until FRG or RG administration. The following day, subjects were administered FRG or RG at 8 AM according to the assigned sequence group, and were not allowed to eat until 1 PM. All participants were provided lunch and dinner by the study staff. They were discharged at 2 PM the day after dosing with FRG or RG, and visited the clinical trial center at 8 AM the day after discharge. To assess pharmacokinetic parameters, blood samples (9 mL) were serially collected into heparinized tubes just before (0 h) the dose of FRG or RG, and after the dose of FRG or RG at the following time points: 0.5, 1, 2, 3, 4, 5, 6, 7, 8, 10, 12, 14, 24, and 30 h during hospitalization, and 48 h at the outpatient visit. Blood samples were placed into heparinized tubes and centrifuged immediately at 3500× g, 10 min, and −4 °C. Plasma was stored at −70 °C.
CY, CK, PPD, PPT, and Rh2 were analyzed as previously described. An Agilent 1200 series (Agilent Technologies, Santa Clara, CA, USA) or Shimadzu Nexera X2 (Shimadzu, Tokyo, Japan), and Applied Biosystems MDS SCIEX API 4000 Triple Quadrupole Mass Spectrometer (SCIEX, Framingham, MA, USA) with an ESI source in the negative ion mode, were used. Data were analyzed and processed using the Analyst 1.6.2 program (SCIEX, Framingham, MA, USA). Rb1 and F2 were analyzed using Elute UHPLC (Bruker, Billerica, MA, USA) and an EVOQ Elite triple quadrupole mass spectrometer (Bruker, Billerica, MA, USA) with an ESI source in positive ion mode. Data were acquired and processed using the Analyst 1.6.2 program (SCIEX, Framingham, MA, USA), and Bruker Daltonic MS Workstation 8.2.1 (Bruker, Billerica, MA, USA). Ginsenosides standards (Rb1, Rh2 and C-Y) were provided by the Ambo Institute (Daejeon, Republic of Korea). Ginsenosides standards (F2, CK, PPD and PPT) were provided by Ace Enzyme (Kyunggi-do, Republic of Korea). Digoxin, diphenhydramine hydrochloride, formic acid, ammonium acetate, and dimethyl sulfoxide were purchased from Sigma Aldrich (Saint Louis, MO, USA). Methanol, acetonitrile, ethyl acetate, and methyl tertiary butyl ether were purchased from J.T. Baker (Philipsburg, NJ, USA) and purified water for HPLC analysis was obtained using AQUA max® by Younglin (Kyunggi-do, Republic of Korea) water purification system. The final concentrations of the calibration standards were 0.5, 1, 2, 5, 10, 25, and 50 ng/mL, and those of the QC samples were 1.5, 7.5, and 40 ng/mL. The final concentrations of the CK calibration standard were 5, 50, 250, 500, 1000, 1500, and 2500 ng/mL, and those of the QC samples were 15, 1200, and 2000 ng/mL. The human plasma samples were taken out of the −70 °C freezer and thawed at room temperature for the bioanalysis. […]

[1] = plasma, after 6 g FRG oral single dose, median (min, max), read-out: Tmax
[2] = plasma, plasma, after 6 g FRG oral single dose, 0 to 24 h, mean ± SD, read-out: AUC24
[3] = plasma, plasma, after 6 g FRG oral single dose, healthy volunteers, mean ± SD, n = 15, read-out: Cmax
[4] = plasma, plasma, after 6 g FRG oral single dose, mean ± SD, read-out: AUClast
[5] = plasma, plasma, after 6 g RG oral single dose, 0 to 24 h, mean ± SD, read-out: AUC24
[6] = plasma, plasma, after 6 g RG oral single dose, healthy volunteers, mean ± SD, n = 15, read-out: Cmax
[7] = plasma, plasma, after 6 g RG oral single dose, mean ± SD, read-out: AUClast
[8] = plasma, after 6 g RG oral single dose, median (min, max), read-out: Tmax

Structure (SMILES)	AUC24 GMR (90% CI)	AUClast GMR (90% CI)	Cmax GMR (90% CI)	Tmax [1]	AUC [2]	Cmax [3]	AUC(0-t) [4]	AUC [5]	Cmax [6]	AUC(0-t) [7]	Tmax [8]	other results
CC(C)=CCC[C@](C)(O[C@@H]1O[C@H](CO)[C@@H](O)[C@H](O)[C@H]1O)[C@H]1CC[C@]2(C)[C@@H]1[C@H](O)C[C@@H]1[C@@]3(C)CC[C@H](O)C(C)(C)[C@@H]3CC[C@]12C [CK, compound K]	64.86 fold and 64.86 (51.12, 82.29) * fold	74.53 fold and 74.53 (59.32, 93.64) * fold	69.23 fold and 69.23 (55.93, 85.69) * fold	3.02 h	8710 ± 2360 ng·h/mL	1550 ± 394 ng/mL	9440 ± 2620 ng·h/mL	158 ± 125 ng·h/mL	23.8 ± 12.2 ng/mL	145 ± 106 ng·h/mL	–	Difference of median Tmax, FRG higher than RG (FRG versus RG): 1 h
CC(C)=CCC[C@](C)(O[C@@H]1O[C@H](CO[C@@H]2OC[C@H](O)[C@H](O)[C@H]2O)[C@@H](O)[C@H](O)[C@H]1O)[C@H]1CC[C@]2(C)[C@@H]1[C@H](O)C[C@@H]1[C@@]3(C)CC[C@H](O)C(C)(C)[C@@H]3CC[C@]12C [CY, compound Y]	–	–	–	–	–	–	–	–	–	–	–	AUC (in vivo, AUC24): 33.4 ± 9.82 ng·h/mL; AUC(0-t) (in vivo, AUClast): 32.5 ± 9.44 ng·h/mL; Cmax (in vivo, Cmax): 8.38 ± 2.22 ng/mL; Tmax (in vivo, Tmax): 3.02 h
CC(C)=CCC[C@](C)(O[C@@H]1O[C@H](CO)[C@@H](O)[C@H](O)[C@H]1O)[C@H]1CC[C@]2(C)[C@@H]1[C@H](O)C[C@@H]1[C@@]3(C)CC[C@H](O[C@@H]4O[C@H](CO)[C@@H](O)[C@H](O)[C@H]4O)C(C)(C)[C@@H]3CC[C@]12C [Ginsenoside F2]	–	–	–	4.03 h	142 ± 34.3 ng·h/mL	14.7 ± 3.58 ng/mL	168 ± 47.4 ng·h/mL	–	–	–	–	Plasma concentrations (after 6 g RG, F2 except one subject): below the lower limit of quantification; also recorded: below the LLOQ
CC(C)=CCC[C@](C)(O)[C@H]1CC[C@]2(C)[C@@H]1[C@H](O)C[C@@H]1[C@@]3(C)CC[C@H](O)C(C)(C)[C@@H]3CC[C@]12C [PPD, protopanaxadiol]	–	4.97 (2.38, 10.34) ^‡ fold	–	12 h	48.7 ± 41.1 ng·h/mL	5.65 ± 4.78 ng/mL	92.2 ± 96.5 ng·h/mL	13.9 ± 19.1 ng·h/mL	1.99 ± 1.62 ng/mL	20.3 ± 25.1 ng·h/mL	27.1 h	–
CC(C)=CCC[C@](C)(O)[C@H]1CC[C@]2(C)[C@@H]1[C@H](O)C[C@@H]1[C@@]3(C)CC[C@H](O)C(C)(C)[C@@H]3[C@@H](O)C[C@]12C [PPT, protopanaxatriol]	1.87 fold and 1.87 (1.16, 3.01) ^† fold	1.76 fold and 1.76 (1.17, 2.65) ^† fold	2.56 fold and 2.56 (1.83, 3.57) * fold	6 h	63.7 ± 42.8 ng·h/mL	8.92 ± 5.38 ng/mL	83 ± 59.4 ng·h/mL	34.1 ± 24.7 ng·h/mL	3.5 ± 2 ng/mL	45.7 ± 32.1 ng·h/mL	19 h	–
CC(C)=CCC[C@](C)(O[C@@H]1O[C@H](CO[C@@H]2O[C@H](CO)[C@@H](O)[C@H](O)[C@H]2O)[C@@H](O)[C@H](O)[C@H]1O)[C@H]1CC[C@]2(C)[C@@H]1[C@H](O)C[C@@H]1[C@@]3(C)CC[C@H](O[C@@H]4O[C@H](CO)[C@@H](O)[C@H](O)[C@H]4O[C@@H]4O[C@H](CO)[C@@H](O)[C@H](O)[C@H]4O)C(C)(C)[C@@H]3CC[C@]12C [Rb1]	–	–	–	–	–	–	–	36.5 ± 25.6 ng·h/mL	2.33 ± 1.61 ng/mL	62.4 ± 48.1 ng·h/mL	8 h	Plasma concentrations (after 6 g FRG): below the LLOQ
CC(C)=CCC[C@](C)(O)[C@H]1CC[C@]2(C)[C@@H]1[C@H](O)C[C@@H]1[C@@]3(C)CC[C@H](O[C@@H]4O[C@H](CO)[C@@H](O)[C@H](O)[C@H]4O)C(C)(C)[C@@H]3CC[C@]12C [Rh2]	18.17 fold and 18.17 (12.4, 26.62) * fold	18.47 fold and 18.47 (12.74, 26.78) * fold	20.27 fold and 20.27 (15.13, 27.17) * fold	–	–	–	–	–	–	–	–	Tmax (in vivo, after 6 g FRG oral single dose, median (min, max), read-out: Tmax): 3.02 h; Tmax (in vivo, after 6 g RG oral single dose, median (min, max), read-out: Tmax): 3 h; AUC (in vivo, plasma, after 6 g FRG oral single dose, 0 to 24 h, mean ± SD, read-out: AUC24): 135 ± 44.4 ng·h/mL; Cmax (in vivo, plasma, after 6 g FRG oral single dose, healthy volunteers, mean ± SD, n = 15, read-out: Cmax): 33 ± 11.9 ng/mL; AUC(0-t) (in vivo, plasma, after 6 g FRG oral single dose, mean ± SD, read-out: AUClast): 133 ± 42.6 ng·h/mL; AUC (in vivo, plasma, after 6 g RG oral single dose, 0 to 24 h, mean ± SD, read-out: AUC24): 8.97 ± 5.57 ng·h/mL; Cmax (in vivo, plasma, after 6 g RG oral single dose, healthy volunteers, mean ± SD, n = 15, read-out: Cmax): 1.77 ± 1.17 ng/mL; AUC(0-t) (in vivo, plasma, after 6 g RG oral single dose, mean ± SD, read-out: AUClast): 8.35 ± 4.31 ng·h/mL

From article PMC9784495, “Pharmacokinetic Comparison of Ginsenosides between Fermented and Non-Fermented Red Ginseng in Healthy Volunteers” (Pharmaceutics, 2022)
